# Experimental data published in US20170007619A1, “High Dose Dehydroepiandrosterone as Anticancer Treatment With Multi-faceted Reconstitution of Otherwise Depleted Metabolites” (priority 2015, published 2017).
# “Also recorded” adds a separate entry of the source.
# Key:
# [1] = Side effects of HD DHEA and their prevention by reconstitution; assay type: in vivo, dogs; details: for DHEA-induced ocular (ophthalmic) inflammation on reconstitution: dogs administered DHEA, IPA (and BH4) added; for susceptibility to infections under DHEA with concurrent reconstitution: dogs and cats; for susceptibility to infections under DHEA with concurrent reconstitution / fluid retention symptoms under DHEA with concurrent reconstitution: concurrent BH4, potassium nitrate and IPA; for fluid retention symptoms under DHEA with concurrent reconstitution: dogs
# Excerpt: Table 1. Physical symptoms associated with HD DHEA-induced Nitric Oxide (NO) depletion.
# [2] = Depletion and reconstitution of metabolites in dogs treated with HD DHEA; assay type: in vivo; details: for ubiquinone levels with supplementation in DHEA-treated animals: supplementation with ubiquinone and tocotrienols
# Procedure: FIG. 4. […] For IPA quantitation, preliminary in vitro studies were performed in which DHEA-treated and control HT-29SF cells were exposed to [^3H]-mevalonic acid (saponified; data not shown). […] For ease of presentation, pretreatment values for all 3 determinations (BH4, IPA and ubiquinone) were given a value of 1, with treatment values presented as their respective fraction thereof. Male and female dogs had blood or other specimens drawn pretreatment, and then following 90 days of 10 mg/kg DHEA±reconstitution protocol.
# FIG. 6. […] Fifteen ml blood samples were drawn and the buffy coat was isolated by low speed centrifugation in the standard manner. […] AMP, ADP and ATP were quantitated. […] For ease of presentation, pretreatment values are presented with a value of 1, with treatment values presented as their respective fraction thereof.
# FIG. 8. […] Ten mg of intestinal mucosa was analyzed for each animal. […] Results are presented as percentage of values in pretreatment dogs, mean±SEM.
# FIG. 10. […] 24 hour urine was collected from neutered male and female animals in amber glass containment vessels. To 100 ml of urine was added 1 ml of concentrated HCL as preservative. […] These same dogs were then administered DHEA (10 mg/kg)±the reconstitution regimen which included the monoamine mix described above. This treatment continued for 90 days, at which time further urine specimens were collected and assayed for norepinephrine. The data are reported as the mean±SEM.
# FIG. 11. […] Before treatment, 10-15 ml blood samples were taken from male and female neutered dogs, and plasma was collected by low speed centrifugation by the standard method.
# spontaneous cancers = experiment: HD DHEA in cancer stricken dogs (spontaneous cancers, Table 3); assay type: in vivo
# Excerpt: In preliminary experiments we exposed human colonic carcinoma HT29SF cells to various doses of DHEA and assessed the effects of such treatment upon cell cycle kinetics.
# Table 3. Decreased tumor volume, increased longevity (compared to historical controls), and improved quality of life in dogs with spontaneous cancers.
# [3] = target: Glucose-6-phosphate dehydrogenase (G6PD) (Homo sapiens, UniProt P11413); details: cited from earlier work
# [4] = test system: human colonic carcinoma HT29SF cells; experiment: Flow cytometric cell cycle analysis of HT-29SF cells exposed to DHEA; assay type: cell-based
# [5] = test system: 1,2-dimethylhydrazine-induced colonic tumors, which metastasize to the liver; experiment: Carcinogen (1,2-dimethylhydrazine)-induced tumors in dogs ± HD DHEA (Table 2); assay type: in vivo
# Excerpt: Table 2. Decreased tumor volume and increased longevity in dogs administered HD DHEA to treat […] tumors. […] Organotropic carcinogens produce tumors in specific organs. Dimethylhydrazine produces exclusively colonic tumors, which metastasize to the liver. In this series of experiments 13 dogs were exposed to DMH only, and 13 were exposed to DMH followed by treatment with HD DHEA.
# statin-treated cells = details: cited from earlier work
# [6] = DMH followed by HD DHEA, Student's t test
# [7] = tissues of animals administered HD DHEA
# [8] = tissues of dogs administered HD DHEA
# Chain of Glucose-6-phosphate dehydrogenase (G6PD) (P11413 whole entry, species assumed): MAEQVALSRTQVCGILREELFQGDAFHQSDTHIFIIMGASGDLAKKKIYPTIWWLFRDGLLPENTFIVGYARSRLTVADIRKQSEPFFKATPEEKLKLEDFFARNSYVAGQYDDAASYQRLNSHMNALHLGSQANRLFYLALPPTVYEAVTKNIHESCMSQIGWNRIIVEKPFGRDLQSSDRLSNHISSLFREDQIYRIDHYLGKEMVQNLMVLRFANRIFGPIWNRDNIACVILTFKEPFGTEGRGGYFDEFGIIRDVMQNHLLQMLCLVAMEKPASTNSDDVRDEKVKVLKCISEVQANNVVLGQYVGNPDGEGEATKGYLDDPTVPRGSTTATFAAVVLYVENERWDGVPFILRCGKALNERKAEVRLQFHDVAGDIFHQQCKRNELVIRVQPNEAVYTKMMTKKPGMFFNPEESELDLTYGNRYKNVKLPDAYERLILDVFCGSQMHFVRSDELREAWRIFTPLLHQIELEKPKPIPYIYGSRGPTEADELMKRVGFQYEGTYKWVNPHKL
compound,measurement,setting,value
"CC(O)C(O)C1CNc2nc(N)[nH]c(=O)c2N1 (stereo not shown) [BH4, tetrahydrobiotperin]",DHEA-induced ocular (ophthalmic) inflammation on reconstitution,[1],prevents
same,susceptibility to infections under DHEA with concurrent reconstitution,[1],eliminated
same,fluid retention symptoms under DHEA with concurrent reconstitution,[1],eliminated
same,"dopamine, norepinephrine and epinephrine levels on replenishment of BH4",[2]; DHEA-treated animals,restoring normal or near normal
"C[C@]12CC[C@H](O)CC1=CC[C@@H]1[C@@H]2CC[C@]2(C)C(=O)CC[C@@H]12 [DHEA, Dehydroepiandrosterone]",side effects observed with HD DHEA,[1]; HD DHEA without reconstitution,"motor incoordination sometimes occurs; also recorded: susceptibility to infections, particularly in the ear and eye; also recorded: induction of vasoconstriction; also recorded: Fluid retention; also recorded: auto-inflammatory-like disorder"
same,longevity,spontaneous cancers; HD DHEA,significant improvements in longevity
same,tumor volume,spontaneous cancers; HD DHEA,decreases in tumor volume
same,quality of life,spontaneous cancers; HD DHEA supplemented with specific metabolites,increases in quality of life
same,G6PD inhibition,[3],potent uncompetitive inhibitor of G6PD
same,effect on cell cycle kinetics,[4]; HT29SF cells exposed to various doses of DHEA,arrested cells in the G1 phase of the cell cycle
same,"number of tumors induced, control vs HD DHEA-treated dogs",[5]; 13 dogs DMH only vs 13 DMH followed by HD DHEA,not statistically different
same,"number and total weight of hepatic metastases, control vs HD DHEA-treated dogs",[5]; [6],statistically significant
same,"weight of the individual colonic tumors, control vs HD DHEA-treated dogs",[5]; [6],statistically significant
same,NO level during HD DHEA,[2]; animals administered HD DHEA,depleted
same,total pools of isopentenylated tRNA,"[2]; buffy coat lymphocytes of dogs treated with DHEA, HPLC",depleted
same,"ubiquinone levels, continuous DHEA treatment",[2]; continuous treatment at doses capable of inducing HD DHEA,decline; also recorded: depleted
same,"one carbon pool products (e.g., AMP, ADP, ATP; purines, pyrimidines, S-adenosylmethionine) during HD DHEA",[2]; dogs administered HD DHEA,profoundly depleted
same,"ubiquinone levels, short term DHEA exposure",[2]; over the short term,increased
same,BH4 level during HD DHEA,[2]; [7],depleted
same,IPA level during HD DHEA,[2]; [7],becomes depleted
same,important monoamines during HD DHEA,[2]; [8],depleted
same,phenylalanine levels during HD DHEA,[2]; [8],increased
"CC(C)=CCNc1ncnc2c1ncn2[C@@H]1O[C@H](CO)[C@@H](O)[C@H]1O [IPA, N6-Δ2-isopentenyladenosine]",DHEA-induced ocular (ophthalmic) inflammation on reconstitution,[1],prevents; also recorded: completely prevent
same,susceptibility to infections under DHEA with concurrent reconstitution,[1],eliminated
same,fluid retention symptoms under DHEA with concurrent reconstitution,[1],eliminated
CC(C)=CCNc1ncnc2nc[nH]c12 [Isopentenyladenine],activity in restoring DNA synthesis relative to mevalonate,statin-treated cells,approximately 100 fold
N[C@@H](Cc1ccc(O)c(O)c1)C(=O)O [L-DOPA],emesis,"[1]; dog, in vivo",can lead to emesis in some dogs
C[C@@](O)(CCO)CC(=O)O [mevalonic acid],reversal of DHEA-induced cell cycle arrest,[4]; addition of mevalonic acid and nucleosides to DHEA-treated HT29SF cells,partly or completely reversed
O=[N+]([O-])[O-].[K+] [potassium nitrate],symptoms associated with NO depletion,[1]; animals undergoing HD DHEA plus potassium nitrate,eliminating
same,susceptibility to infections under DHEA with concurrent reconstitution,[1],eliminated
same,fluid retention symptoms under DHEA with concurrent reconstitution,[1],eliminated
same,replenishment of NO in animals undergoing HD DHEA,[2]; potassium nitrate as NO donor,can replenish NO
C[C@]12C=CC(=O)C=C1CC[C@@H]1[C@@H]2C(=O)C[C@@]2(C)[C@H]1CC[C@]2(O)C(=O)CO [prednisone],G6PD inhibition,[3],does not inhibit G6PD
COC1=C(OC)C(=O)C(C/C=C(\C)CC/C=C(\C)CC/C=C(\C)CC/C=C(\C)CC/C=C(\C)CC/C=C(\C)CC/C=C(\C)CC/C=C(\C)CC/C=C(\C)CCC=C(C)C)=C(C)C1=O [ubiquinone],"combination of ubiquinone and tocotrienols vs ubiquinone alone, retaining ubiquinone levels",[2]; DHEA-treated animals,more effective
same,ubiquinone levels with supplementation in DHEA-treated animals,[2],maintains normal or near normal ubiquinone levels
tocotrienols,"combination of ubiquinone and tocotrienols vs ubiquinone alone, retaining ubiquinone levels",[2]; DHEA-treated animals,more effective
same,ubiquinone levels with supplementation in DHEA-treated animals,[2],maintains normal or near normal ubiquinone levels
